Read-outs that look alike come from different tables or passages of the source.
Experiments:
3T3-L1 cells [1] = test: Glucose Uptake-Glo Assay, saponin compounds; assay type: cell-based; conditions: Mus musculus, read-out: Fold Relative to Control (glucose uptake)
Protocol: The 3T3-L1 cells were cultured in a high glucose DMEM medium in which 10% Calf serum and penicillin-streptomycin were added, and subcultured per 2-3 days. […] After 2 days, it was replaced with a medium containing insulin, and the medium was replaced again per 2 days to induce differentiation.
For the differentiation-completed 3T3-L1 cells, starvation was conducted for 16 hours, and then a sea cucumber-derived single compound was treated in a serum-free medium at a concentration of 2.5 ug/mL for 6 hours. The cultured supernatant was recovered and for the 3T3-L1 cells, using Glucose Uptake-Glo Assay Kit, the glucose transport activity degree was measured using a luminometer.

[2] = system: FAS, PPARγ, C/EBPα, and FABP4; test: Expression of adipogenesis-related proteins in 3T3-L1 cells treated with single compounds; assay type: cell-based
Protocol: In order to investigate the effect on expression of the adipocytes differentiation-related proteins by the sea cucumber extract, expression of the related proteins was confirmed through western blot. The differentiation-completed 3T3-L1 cells were washed with PBS, and then lysis was conducted with RIPA buffer, and then the proteins were separated by molecular weight through SDS-PAGE. After that, it was transferred to a PVDF membrane and it was blocked using 5% skim milk for 30 minutes. Then, it was reacted with a primary antibody, and then a secondary antibody was attached to confirm protein expression using an ECL solution.
In order to figure out the mechanism of the fat accumulation inhibitory efficacy of the single compound examined above, the degree of expression of proteins of FAS, PPARγ, C/EBPα, and FABP4, which were adipogenesis-related proteins was confirmed.

3T3-L1 cells [3] = test: Oil red O staining, single compounds of sea cucumber ovary extract; assay type: cell-based
Protocol: The differentiation-completed 3T3-L1 cells were fixed with 4% formaldehyde for 1 hour, and then fats were stained using a 0.5% Oil red O staining solution to confirm the degree of differentiation. For quantitative analysis of adipose differentiation, the dye stained in the cells was dissolved with 100% isopropyl alcohol and the absorbance was measured at 500 nm.
In order to investigate the effect on adipose differentiation of the 3T3-L1 cells of the single compound in the sea cucumber ovary extract, a total 8 of compounds were treated with a differentiation medium at a concentration of 2.5 and 5 μg/ml for 48 hours.

3T3-L1 cells [4] = test: 3T3-L1 cell viability of single compounds separated from sea cucumber ovary extract; conditions: single compounds 2.5-5 μg/ml
3T3-L1 cells [5] = system: 3T3-L1 cells
[6] = differentiated 3T3-L1 cells, compound 2.5 ug/mL, 6 hours, serum-free medium
[7] = 1 μg/ml, compared to the control group

Row | SMILES | fold induction at 2.5 µg/mL (3T3-L1 cells [1]; [6]) | expression of adipogenesis-related proteins FAS, PPARγ, C/EBPα, and FABP4 [2] | fold induction at 2.5 µg/mL (3T3-L1 cells [1]; 3T3-L1, 6 h) | other results
1 | C=C(C)CCC[C@](C)(O)[C@@H]1[C@@H]2CC3(C)C4=CCC5C(C)(C)[C@@H](O[C@@H]6OCC(O[C@@H]7OC(CO)C(O)[C@H](O)C7O)[C@H](O)C6O[C@@H]6OC(CO)C(O[C@@H]7OC(CO)C(O)[C@H](O[C@@H]8OC(CO)C(O)[C@H](O)C8O)C7O)[C@H](O)C6O)CC[C@]5(C)C4CCC13C(=O)O2 (stereo partly shown) [S1] | 1.25 | – | – | –
2 | C=C(C)CCC[C@](C)(O)[C@@H]1[C@@H]2CC3(C)C4=CCC5C(C)(C)[C@@H](O[C@@H]6OCC(O[C@@H]7OC(CO)C(O)[C@H](O)C7O)[C@H](O)C6O[C@@H]6OC(C)C(O[C@@H]7OC(CO)C(O)[C@H](O[C@@H]8OC(CO)C(O)[C@H](O)C8O)C7O)[C@H](O)C6O)CC[C@]5(C)C4CCC13C(=O)O2 (stereo partly shown) [S2] | 1.43 | – | – | expression of adipogenesis-related proteins FAS, PPARγ, C/EBPα, and FABP4 ([2]; compared to the control, concentration not given): a significant difference in protein expression was not shown
3 | C=C(C)CCC[C@](C)(O)[C@@H]1[C@@H]2CC3(C)C4=CCC5C(C)(C)[C@@H](O[C@@H]6OCC(O[C@@H]7OC(CO)C(O)[C@H](O)C7O)[C@H](O)C6O[C@@H]6OC(C)C(O[C@@H]7OC(CO)C(O)[C@H](O[C@@H]8OC(CO)C(O)[C@H](OC)C8O)C7O)[C@H](O)C6O)CC[C@]5(C)C4CCC13C(=O)O2 (stereo partly shown) [S3] | 1.1 | – | – | inhibition at 1 µg/mL (3T3-L1 cells [3]; Mus musculus, 3T3-L1, 1 μg/ml (lowest of the series from 1 μg/ml to 5 μg/ml), read-out: inhibition of fat accumulation): ~16%; inhibition at 5 µg/mL (3T3-L1 cells [3]; Mus musculus, 3T3-L1, 5 μg/ml (highest of the series from 1 μg/ml to 5 μg/ml), read-out: inhibition of fat accumulation): ~80%; inhibition of fat accumulation (3T3-L1 cells [3]; middle concentration of the series from 1 μg/ml to 5 μg/ml (2.5 μg/ml by the method)): ~40%; expression of adipogenesis-related proteins FAS, PPARγ, C/EBPα, and FABP4 [2, 7]: definitely reduced; expression of adipogenesis-related proteins FAS, PPARγ, C/EBPα, and FABP4 ([2]; from 2.5 μg/ml): expression of the related proteins was definitely reduced; change of 3T3-L1 cell viability (3T3-L1 cells [4]): a significant decrease was shown
4 | C=C(C)CCC[C@@]1(C)OC(=O)C23CC=C4C(CCC5C(C)(C)[C@@H](O[C@@H]6OCC(O[C@@H]7OC(CO)C(O)[C@H](O[C@@H]8OC(CO)C(O)[C@H](OC)C8O)C7O)[C@H](O)C6O[C@@H]6OC(CO)C(O[C@@H]7OC(CO)C(O)[C@H](O[C@@H]8OC(CO)C(O)[C@H](O)C8O)C7O)[C@H](O)C6O)CC[C@]45C)C2(C)CC(=O)C31 (stereo partly shown) [S4] | 1.6 | – | – | expression of adipogenesis-related proteins FAS, PPARγ, C/EBPα, and FABP4 [2, 7]: definitely reduced; expression of adipogenesis-related proteins FAS, PPARγ, C/EBPα, and FABP4 ([2]; from 2.5 μg/ml): expression of the related proteins was definitely reduced; change of 3T3-L1 cell viability (3T3-L1 cells [4]): a significant decrease was shown
5 | C=C(C)CCC[C@@]1(C)OC(=O)C23CC=C4C(CCC5C(C)(C)[C@@H](O[C@@H]6OCC(O[C@@H]7OC(CO)C(O)[C@H](O[C@@H]8OC(CO)C(O)[C@H](O)C8O)C7O)[C@H](O)C6O[C@@H]6OC(CO)C(O[C@@H]7OCC(O)[C@H](O[C@@H]8OC(CO)C(O)[C@H](OC)C8O)C7O)[C@H](O)C6O)CC[C@]45C)C2(C)CC(=O)C31 (stereo partly shown) [S5, holotoxin D1] | – | expression of the related proteins was definitely reduced | 1.38 | change of 3T3-L1 cell viability (3T3-L1 cells [5]): a significant decrease was shown
6 | C=C(C)CCC[C@@]1(C)OC(=O)C23CC=C4C(CCC5C(C)(C)[C@@H](O[C@@H]6OCC(O[C@@H]7OC(CO)C(O)[C@H](O[C@@H]8OC(CO)C(O)[C@H](O)C8O)C7O)[C@H](O)C6O[C@@H]6OC(C)C(O[C@@H]7OC(CO)C(O)[C@H](O[C@@H]8OC(CO)C(O)[C@H](OC)C8O)C7O)[C@H](O)C6O)CC[C@]45C)C2(C)CC(=O)C31 (stereo partly shown) [S6, holotoxin B] | – | a definite decrease in protein expression | 1.24 | –
7 | C=C(C)CCC[C@@]1(C)OC(=O)C23CC=C4C(CCC5C(C)(C)[C@@H](O[C@@H]6OCC(O[C@@H]7OC(CO)C(O)[C@H](O[C@@H]8OC(CO)C(O)[C@H](OC)C8O)C7O)[C@H](O)C6O[C@@H]6OC(C)C(O[C@@H]7OC(CO)C(O)[C@H](O[C@@H]8OC(CO)C(O)[C@H](OC)C8O)C7O)[C@H](O)C6O)CC[C@]45C)C2(C)CC(=O)C31 (stereo partly shown) [S8, holotoxin A] | – | a definite decrease in protein expression | 1.43 | –
8 | C=C(C)CCC[C@](C)(O)[C@@H]1[C@@H]2CC3(C)C4=CCC5C(C)(C)[C@@H](O[C@@H]6OCC(O[C@@H]7OC(CO)C(O)[C@H](O)C7O)[C@H](O)C6O[C@@H]6OC(C)C(O[C@@H]7OC(CO)C(O)[C@H](O)C7O)[C@H](O)C6O)CC[C@]5(C)C4CCC13C(=O)O2 (stereo partly shown) [S9] | 1.03 | – | – | –

Reference: patent US20240058392A1, “COMPOSITION COMPRISING SEA CUCUMBER GENITAL GLAND EXTRACT, COMPOUND DERIVED FROM SEA CUCUMBER OVARY EXTRACT, AND USE THEREOF” (BIOINFORMATICS & MOLECULAR DESIGN RESEARCH CENTER, priority 2020, published 2024)
